pEC50, pIC50: −log10 of the molar value. Read-outs that look alike come from different tables or passages of the source.
Assays:
SREBP-2 = SREBP-2 (Homo sapiens (Human), UniProt Q12772); assay: In vitro assay SREBP-2: PathHunter U2OS SREBP-2 Nuclear Translocation Cell Line, U18666A-stimulated; format: cell-based
LXRβ = LXRβ (Homo sapiens (Human), UniProt P55055); assay: In vitro assay LXRβ: PathHunter NHR CHO cells, LXRβ / Steroid Receptor Co-activator Peptide enzyme fragment complementation; format: cell-based
LXRβ, sequence (P55055 whole entry, the tested form may be a part): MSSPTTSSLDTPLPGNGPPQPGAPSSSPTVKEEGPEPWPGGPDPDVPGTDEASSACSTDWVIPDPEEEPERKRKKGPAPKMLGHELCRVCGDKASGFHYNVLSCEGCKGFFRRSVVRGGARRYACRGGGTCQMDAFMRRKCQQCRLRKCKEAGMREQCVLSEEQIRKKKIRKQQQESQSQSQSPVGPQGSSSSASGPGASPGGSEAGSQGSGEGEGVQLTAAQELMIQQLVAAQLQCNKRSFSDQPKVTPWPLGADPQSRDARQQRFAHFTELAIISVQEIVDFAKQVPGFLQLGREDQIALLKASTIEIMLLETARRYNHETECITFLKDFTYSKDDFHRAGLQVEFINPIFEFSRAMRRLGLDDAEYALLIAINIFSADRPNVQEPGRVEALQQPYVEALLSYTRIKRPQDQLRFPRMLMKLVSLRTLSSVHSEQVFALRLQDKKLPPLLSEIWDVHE
How it was run: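 Co-activator recruitment measured by chemiluminescence after signal generation. The CHO line carries full-length human LXRβ tagged with ProLink and an SRCP–enzyme acceptor fusion in the nucleus; cells sat overnight at 37° C before testing, in charcoal-dextran filtered serum medium with 1% final vehicle.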

[1] = PathHunter U2OS SREBP-2 nuclear translocation cells, U18666A 10 μM, overnight (16 hours)
[2] = PathHunter NHR CHO cells, full-length human LXRβ and SRCP, chemiluminescent signal, read-out: LXRβ PPI

SMILES | pIC50 (SREBP-2; [1]) | pEC50 (LXRβ; [2]) | pIC50 (SREBP-2) | pEC50 (LXRβ)
C[C@@H]1CCN(C(=O)N2CCN(C(=O)CC[C@@H](C)[C@H]3CC[C@H]4[C@@H]5CC=C6C[C@@H](O)CC[C@]6(C)[C@H]5CC[C@]34C)CC2)C1 [Example 667, (R)-4-((3S,8S,9S,10R,13R,14S,17R)-3-hydroxy-10,13-dimethyl-2,3,4,7,8,9,10,11,12,13,14,15,16,17-tetradecahydro-1H-cyclopenta[a]phenanthren-17-yl)-1-(4-((R)-3-methylpyrrolidine-1-carbonyl)piperazin-1-yl)pentan-1-one] | > 6.60 | < 5.00 | – | –
C[C@H](CCC(=O)N1CCN(C(=O)N2CCCC2)C[C@@H]1C)[C@H]1CC[C@H]2[C@@H]3CC=C4C[C@@H](O)CC[C@]4(C)[C@H]3CC[C@]12C [Example 655, (R)-4-((3S,8S,9S,10R,13R,14S,17R)-3-hydroxy-10,13-dimethyl-2,3,4,7,8,9,10,11,12,13,14,15,16,17-tetradecahydro-1H-cyclopenta[a]phenanthren-17-yl)-1-((S)-2-methyl-4-(pyrrolidine-1-carbonyl)piperazin-1-yl)pentan-1-one] | > 6.60 | < 5.00 | – | –
C[C@H](CCC(=O)N1CC=C(C2CC2)CC1)[C@H]1CC[C@H]2[C@@H]3CC=C4C[C@@H](O)CC[C@]4(C)[C@H]3CC[C@]12C [Example 193A, (R)-1-(4-cyclopropyl-3,6-dihydropyridin-1(2H)-yl)-4-((3S,8S,9S,10R,13R,14S,17R)-3-hydroxy-10,13-dimethyl-2,3,4,7,8,9,10,11,12,13,14,15,16,17-tetradecahydro-1H-cyclopenta[a]phenanthren-17-yl)pentan-1-one] | > 6.60 | 6.00 to 6.60 | – | –
CNC(=O)N1CCN(C(=O)CC[C@@H](C)[C@H]2CC[C@H]3[C@@H]4CC=C5C[C@@H](O)CC[C@]5(C)[C@H]4CC[C@]23C)CC1 [Example 337, 4-[(4R)-4-[(1R,3aS,3bS,7S,9aR,9bS,11aR)-7-hydroxy-9a,11a-dimethyl-1H,2H,3H,3aH,3bH,4H,6H,7H,8H,9H,9aH,9bH,10H,11H,11aH-cyclopenta[a]phenanthren-1-yl]pentanoyl]-N-methylpiperazine-1-carboxamide] | > 6.60 | < 5.00 | – | –
C[C@H](CCC(=O)N1CC2(CC(O)C2)C1)[C@H]1CC[C@H]2[C@@H]3CC=C4C[C@@H](O)CC[C@]4(C)[C@H]3CC[C@]12C [Example 100, (R)-4-((3S,8S,9S,10R,13R,14S,17R)-3-hydroxy-10,13-dimethyl-2,3,4,7,8,9,10,11,12,13,14,15,16,17-tetradecahydro-1H-cyclopenta[a]phenanthren-17-yl)-1-(6-hydroxy-2-azaspiro[3.3]heptan-2-yl)pentan-1-one] | > 6.60 | < 5.00 | – | –
Cc1nccc(N2CCN(C(=O)CC[C@@H](C)[C@H]3CC[C@H]4[C@@H]5CC=C6C[C@@H](O)CC[C@]6(C)[C@H]5CC[C@]34C)C[C@@H]2C)n1 [Example 647, (4R)-4-[(1R,3aS,3bS,7S,9aR,9bS,11aR)-7-hydroxy-9a,11a-dimethyl-1H,2H,3H,3aH,3bH,4H,6H,7H,8H,9H,9aH,9bH,10H,11H,11aH-cyclopenta[a]phenanthren-1-yl]-1-[(3S)-3-methyl-4-(2-methylpyrimidin-4-yl)piperazin-1-yl]pentan-1-one] | > 6.60 | < 5.00 | – | –
C[C@H](CCc1cccnn1)[C@H]1CC[C@H]2[C@@H]3CC=C4C[C@@H](O)CC[C@]4(C)[C@H]3CC[C@]12C [Example 134, (1R,3aS,3bS,7S,9aR,9bS,11aR)-9a,11a-dimethyl-1-[(2R)-4-(pyridazin-3-yl)butan-2-yl]-1H,2H,3H,3aH,3bH,4H,6H,7H,8H,9H,9aH,9bH,10H,11H,11aH-cyclopenta[a]phenanthren-7-ol] | < 5.00 | 6.00 to 6.60 | – | –
C[C@H](CCC(=O)N1CCN(C(=O)NC2CC2)CC1)[C@H]1CC[C@H]2[C@@H]3CC=C4C[C@@H](O)CC[C@]4(C)[C@H]3CC[C@]12C [Example 338, 4-[(4R)-4-[(1R,3aS,3bS,7S,9aR,9bS,11aR)-7-hydroxy-9a,11a-dimethyl-1H,2H,3H,3aH,3bH,4H,6H,7H,8H,9H,9aH,9bH,10H,11H,11aH-cyclopenta[a]phenanthren-1-yl]pentanoyl]-N-cyclopropylpiperazine-1-carboxamide] | > 6.60 | < 5.00 | – | –
C[C@H](COc1ccncc1)[C@H]1CC[C@H]2[C@@H]3CC=C4C[C@@H](O)CC[C@]4(C)[C@H]3CC[C@]12C [Example 181, (8S,9S,10R,13S,14S,17R)-10,13-dimethyl-17-((S)-1-(pyridin-4-yloxy)propan-2-yl)-2,3,4,7,8,9,10,11,12,13,14,15,16,17-tetradecahydro-1H-cyclopenta[a]phenanthren-3-ol] | 6.00 to 6.60 | < 5.00 | – | –
COc1ncncc1N1CCN(C(=O)CC[C@@H](C)[C@H]2CC[C@H]3[C@@H]4CC=C5C[C@@H](O)CC[C@]5(C)[C@H]4CC[C@]23C)CC1 [Example 614, (4R)-4-[(1R,3aS,3bS,7S,9aR,9bS,11aR)-7-hydroxy-9a,11a-dimethyl-1H,2H,3H,3aH,3bH,4H,6H,7H,8H,9H,9aH,9bH,10H,11H,11aH-cyclopenta[a]phenanthren-1-yl]-1-[4-(4-methoxypyrimidin-5-yl)piperazin-1-yl]pentan-1-one] | > 6.60 | < 5.00 | – | –
C[C@H](CCC(=O)N1CCN(C(=O)c2cccnc2)CC1)[C@H]1CC[C@H]2[C@@H]3CC=C4C[C@@H](O)CC[C@]4(C)[C@H]3CC[C@]12C [Example 313, (4R)-4-[(1R,3aS,3bS,7S,9aR,9bS,11aR)-7-hydroxy-9a,11a-dimethyl-1H,2H,3H,3aH,3bH,4H,6H,7H,8H,9H,9aH,9bH,10H,11H,11aH-cyclopenta[a]phenanthren-1-yl]-1-[4-(pyridine-3-carbonyl)piperazin-1-yl]pentan-1-one] | – | – | > 6.60 | < 5.00
C[C@H](CC(=O)N1CCN(C(=O)c2cnn(C)c2)CC1)[C@H]1CC[C@H]2[C@@H]3CC=C4C[C@@H](O)CC[C@]4(C)[C@H]3CC[C@]12C [Example 594, (R)-3-((3S,8S,9S,10R,13R,14S,17R)-3-hydroxy-10,13-dimethyl-2,3,4,7,8,9,10,11,12,13,14,15,16,17-tetradecahydro-1H-cyclopenta[a]phenanthren-17-yl)-1-(4-(1-methyl-1H-pyrazole-4-carbonyl)piperazin-1-yl)butan-1-one] | 5.00 to 6.00 | < 5.00 | – | –
COc1ncnc(N2CCN(C(=O)CC[C@@H](C)[C@H]3CC[C@H]4[C@@H]5CC=C6C[C@@H](O)CC[C@]6(C)[C@H]5CC[C@]34C)CC2)c1OC [Example 618, (R)-1-(4-(5,6-dimethoxypyrimidin-4-yl)piperazin-1-yl)-4-((3S,8S,9S,10R,13R,14S,17R)-3-hydroxy-10,13-dimethyl-2,3,4,7,8,9,10,11,12,13,14,15,16,17-tetradecahydro-1H-cyclopenta[a]phenanthren-17-yl)pentan-1-one] | > 6.60 | < 5.00 | – | –
C[C@H](CCC(=O)N1CCN(C(=O)N2CCC2)CC1)[C@H]1CC[C@H]2[C@@H]3CC=C4C[C@@H](O)CC[C@]4(C)[C@H]3CC[C@]12C [Example 208, (R)-1-(4-(azetidine-1-carbonyl)piperazin-1-yl)-4-((3S,8S,9S,10R,13R,14S,17R)-3-hydroxy-10,13-dimethyl-2,3,4,7,8,9,10,11,12,13,14,15,16,17-tetradecahydro-1H-cyclopenta[a]phenanthren-17-yl)pentan-1-one] | > 6.60 | < 5.00 | – | –
C[C@@H](CCC(=O)N[C@H]1CC[C@@H](C(=O)N(C)C)CC1)[C@H]1CC[C@H]2[C@@H]3CC=C4C[C@@H](O)CC[C@]4(C)[C@H]3CC[C@]12C [Example 641, (1S,4s)-4-((R)-4-((3S,8S,9S,10R,13R,14S,17R)-3-hydroxy-10,13-dimethyl-2,3,4,7,8,9,10,11,12,13,14,15,16,17-tetradecahydro-1H-cyclopenta[a]phenanthren-17-yl)pentanamido)-N,N-dimethylcyclohexane-1-carboxamide] | > 6.60 | < 5.00 | – | –
COC(=O)N1CCN(C(=O)CC[C@@H](C)[C@H]2CC[C@H]3[C@@H]4CC=C5C[C@@H](O)CC[C@]5(C)[C@H]4CC[C@]23C)[C@@H](C)C1 [Example 579, Methyl(S)-4-((R)-4-((3S,8S,9S,10R,13R,14S,17R)-3-hydroxy-10,13-dimethyl-2,3,4,7,8,9,10,11,12,13,14,15,16,17-tetradecahydro-1H-cyclopenta[a]phenanthren-17-yl)pentanoyl)-3-methylpiperazine-1-carboxylate] | > 6.60 | < 5.00 | – | –
COC(=O)N1CCN(C(=O)CC[C@@H](C)[C@H]2CC[C@H]3[C@@H]4CC=C5C[C@@H](O)CC[C@]5(C)[C@H]4CC[C@]23C)C[C@@H]1C [Example 566, Methyl (2S)-4-[(4R)-4-[(1R,3aS,3bS,7S,9aR,9bS,11aR)-7-hydroxy-9a,11a-dimethyl-1H,2H,3H,3aH,3bH,4H,6H,7H,8H,9H,9aH,9bH,10H,11H,11aH-cyclopenta[a]phenanthren-1-yl]pentanoyl]-2-methylpiperazine-1-carboxylate] | > 6.60 | < 5.00 | – | –
C[C@H](Oc1ccncc1)[C@H]1CC[C@H]2[C@@H]3CC=C4C[C@@H](O)CC[C@]4(C)[C@H]3CC[C@]12C [Example 379, (1S,3aS,3bS,7S,9aR,9bS,11aS)-9a,11a-dimethyl-1-[(1S)-1-(pyridin-4-yloxy)ethyl]-1H,2H,3H,3aH,3bH,4H,6H,7H,8H,9H,9aH,9bH,10H,11H,11aH-cyclopenta[a]phenanthren-7-ol] | 6.00 to 6.60 | < 5.00 | – | –

— patent US20230340011A1 (Asteroid Therapeutics, priority 2022, published 2023)
